Assay results reported in the supplement of paper PMC10307832.

Columns and labels:
Assay in all cases: relative viability (nuclei count vs DMSO), 5 days (fraction); higher = more cells survive
Tosedostat + Linsitinib = compound: CC(C)C[C@@H](C(=O)N[C@H](C(=O)OC1CCCC1)c1ccccc1)[C@H](O)C(=O)NO [Tosedostat] + C[C@]1(O)C[C@@H](c2nc(-c3ccc4ccc(-c5ccccc5)nc4c3)c3c(N)nccn32)C1 [Linsitinib] (partner 1 µM)
Method in brief: (§1)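 For relative viability, nuclei counts in treated wells were divided by those in vehicle wells. Lung cancer cell lines had been pin-tool dosed in 1536-well plates the day after seeding and cultured for 5 days, then fixed and stained in one step (final 0.05% Triton X-100, 1% formaldehyde, 1 ug/ml Hoechst) and imaged at 4×. Doses were one drug alone or a fixed anchor-drug dose plus five library-drug doses (not always all listed) in √10 steps, and values are duplicate-plate medians.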

[1] = compound: CC1=NN=C(O1)C2=NN=C(C=C2)N3CCC(CC3)OC4=C(C=CC(=C4)F)Cl + O=C(CCCCCCC(=O)Nc1ccccc1)NO [Vorinostat] (partner 1 µM)
Method in brief: as §1

[2] = compound: CC1=NN=C(O1)C2=NN=C(C=C2)N3CCC(CC3)OC4=C(C=CC(=C4)F)Cl + CC(=O)Nc1cccc(-n2c(=O)n(C3CC3)c(=O)c3c(Nc4ccc(I)cc4F)n(C)c(=O)c(C)c32)c1 [Trametinib] (partner 0.02 µM)
Method in brief: as §1

Tosedostat + Lapatinib = compound: CC(C)C[C@@H](C(=O)N[C@H](C(=O)OC1CCCC1)c1ccccc1)[C@H](O)C(=O)NO [Tosedostat] + CS(=O)(=O)CCNCc1ccc(-c2ccc3ncnc(Nc4ccc(OCc5cccc(F)c5)c(Cl)c4)c3c2)o1 [Lapatinib] (partner 2 µM)
Method in brief: as §1

UMC-11
relative viability (Tosedostat + Linsitinib; first compound 0.02 µM): 0.995
relative viability (Tosedostat + Linsitinib; first compound 0.06325 µM): 1.08
relative viability (Tosedostat + Linsitinib; first compound 0.2 µM): 0.951
relative viability (Tosedostat + Linsitinib; first compound 0.6325 µM): 0.898
relative viability (Tosedostat + Linsitinib; first compound 2 µM): 0.976
relative viability ([1]; first compound 0.253 µM): 0.361
relative viability ([1]; first compound 0.8 µM): 0.351
relative viability ([1]; first compound 2.53 µM): 0.431
relative viability ([1]; first compound 8 µM): 0.383
relative viability ([2]; first compound 0.253 µM): 0.457
relative viability ([2]; first compound 0.8 µM): 0.531
relative viability ([2]; first compound 2.53 µM): 0.33
relative viability ([2]; first compound 8 µM): 0.43
relative viability (Tosedostat + Lapatinib; first compound 0.02 µM): 1.05
relative viability (Tosedostat + Lapatinib; first compound 0.06325 µM): 1.01
relative viability (Tosedostat + Lapatinib; first compound 0.2 µM): 0.957
relative viability (Tosedostat + Lapatinib; first compound 0.6325 µM): 1.19
relative viability (Tosedostat + Lapatinib; first compound 2 µM): 0.96
